# Laboratory results from patent US20080287445A1, “Prokineticin 2 receptor antagonists” (priority 2005, published 2008).
# pIC50: −log10 of the molar value. “And” between values parts separate entries of the source, which are not always exact repeats. Equal entries are not always repeated.
# Biological target: T1, GPR73 (prokineticin 1 receptor) (Homo sapiens, UniProt Q8TCW9)
# T1 construct: expressed in transfected cells; host or cells: HEK 293
# Assay: PK1 functional assay: Ca2+ mobilization screening for PK1 antagonists on the FLIPR
# Format: cell-based
# Conditions: HEK 293 GPR73 cells, multiple values = multiple testing; for inhibition at 10 µM: HEK293, 10 μM compound, read-out: Ca^2+ Mobilization % Inh @ 10 μM; for pIC50: PK1 ligand preparation at its EC50, read-out: Ca^2+ Mobilization IC50; for Ca^2+ Mobilization % Inh @ 10 μM: 10 μM compound
# Summary of the method: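 HEK293 cells expressing human GPR73 were loaded with Calcium Plus dye, then on FLIPR given compound for 4 min 15 s before PK1 ligand at its predetermined EC50. Baseline-subtracted fluorescence over 1 min 45 s gave percent inhibition versus maximal signal; IC50 fitted.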
# T1 sequence (Q8TCW9 whole entry, species assumed): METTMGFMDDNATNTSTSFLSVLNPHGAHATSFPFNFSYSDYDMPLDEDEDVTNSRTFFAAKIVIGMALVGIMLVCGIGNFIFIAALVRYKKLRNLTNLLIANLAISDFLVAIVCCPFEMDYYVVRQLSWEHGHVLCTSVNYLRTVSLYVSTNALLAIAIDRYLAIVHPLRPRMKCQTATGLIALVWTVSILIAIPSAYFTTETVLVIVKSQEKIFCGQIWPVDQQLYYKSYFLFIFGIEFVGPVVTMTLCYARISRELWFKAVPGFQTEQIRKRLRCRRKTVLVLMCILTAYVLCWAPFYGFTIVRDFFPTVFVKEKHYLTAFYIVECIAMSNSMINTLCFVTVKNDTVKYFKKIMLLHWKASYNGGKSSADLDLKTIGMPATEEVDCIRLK
SMILES,inhibition at 10 µM [%],pIC50,Ca^2+ Mobilization % Inh @ 10 μM
COc1ccc(Cn2c(=O)nc(NCc3cccnc3N)n(Cc3ccc(Cl)c(Cl)c3)c2=O)cc1 [Cpd 151],60,5.62,
COc1ccc(Cn2c(=O)nc(NCc3cnc(C)cc3C)n(Cc3ccc(N4C(=O)c5ccccc5C4=O)cc3)c2=O)cc1 [Cpd 152],91,6.62,
COC(=O)CCCn1c(NCc2cnc(C)cc2C)nc(=O)n(Cc2ccc(OC)cc2)c1=O [Cpd 153],81,6.15,
COc1ccc(Cn2c(NCCc3ccccn3)nc(=O)n(Cc3ccc(OC)cc3)c2=O)cc1 [Cpd 154],79,6.18 and 6.02,80%
"COc1ccc(Cn2c(=O)nc(NCc3c(C)cc(C)nc3N)n(Cc3cccc4[nH]ccc34)c2=O)cc1 [Cpd 155, 6-[(2-Amino-4,6-dimethyl-pyridin-3-ylmethyl)-amino]-1-(1H-indol-4-ylmethyl)-3-(4-methoxy-benzyl)-1H-[1,3,5]triazine-2,4-dione]",98,8.70 and 8.15,100%
Nc1cccc(CNc2nc(=O)n(Cc3ccc(F)cc3)c(=O)n2Cc2ccc(OC(F)F)cc2)n1 [Cpd 156],70,5.49,
COc1ccc(Cn2c(=O)nc(NCc3c(C)cc(C)nc3N)n(Cc3ccc4c(c3)CCO4)c2=O)cc1 [Cpd 157],92,8.40 and 7.96,96%
Cc1cc(C)c(CNc2nc(=O)n(Cc3ccc(-n4cccn4)cc3)c(=O)n2Cc2ccc(OC(F)F)cc2)cn1 [Cpd 158],62,5.42,
Cc1cc(C)c(CNc2nc(=O)n(Cc3ccc(I)cc3)c(=O)n2Cc2ccc(OC(F)F)cc2)cn1 [Cpd 159],31,< 5.00,
"Cc1cc(C)c(CNc2nc(=O)n(Cc3ccc(F)cc3)c(=O)n2Cc2ccc(OC(F)F)cc2)cn1 [Cpd 160, 1-(4-Difluoromethoxy-benzyl)-6-[(4,6-dimethyl-pyridin-3-ylmethyl)-amino]-3-(4-fluoro-benzyl)-1H-[1,3,5]triazine-2,4-dione]",71,6.20,
Cc1ccc(Cn2c(=O)nc(NCc3cnc(C)cc3C)n(Cc3ccc(OC(F)F)cc3)c2=O)cc1 [Cpd 161],53,5.32,
Cc1cc(C)c(CNc2nc(=O)n(Cc3ccc(C(F)(F)F)cc3)c(=O)n2Cc2ccc(OC(F)F)cc2)cn1 [Cpd 162],31,< 5.00,
Cc1cc(C)c(CNc2nc(=O)n(Cc3ccc(OC(F)F)cc3)c(=O)n2Cc2ccc(OC(F)F)cc2)cn1 [Cpd 163],38,< 5.00,
Cc1cc(C)c(CNc2nc(=O)n(Cc3ccc(C#N)cc3)c(=O)n2Cc2ccc(OC(F)F)cc2)cn1 [Cpd 164],64,5.70,
COC(=O)c1ccc(Cn2c(=O)nc(NCc3cnc(C)cc3C)n(Cc3ccc(OC(F)F)cc3)c2=O)cc1 [Cpd 165],52,5.21,
Cc1cc(C)c(CNc2nc(=O)n(CCOc3ccccc3)c(=O)n2Cc2ccc(OC(F)F)cc2)cn1 [Cpd 166],73,5.77,
Cc1cc(C)c(CNc2nc(=O)n(CCOc3ccc(F)cc3)c(=O)n2Cc2ccc(OC(F)F)cc2)cn1 [Cpd 167],65,5.58,
Cc1cc(C)c(CNc2nc(=O)n(Cc3ccc(-c4csnn4)cc3)c(=O)n2Cc2ccc(OC(F)F)cc2)cn1 [Cpd 168],68,5.82,
COc1ccc(Cn2c(CCc3cccnc3)cc(=O)n(Cc3ccc(OC)cc3)c2=O)cc1 [Cpd 169],78,6.65 and 6.01,86%
COc1ccc(Cn2c(=O)nc(NCc3cccnc3N)n(Cc3ccc4cc[nH]c4c3)c2=O)cc1 [Cpd 170],96,7.49,
COc1ccc(Cn2c(=O)nc(NCc3cccnc3N)n(Cc3cccc4cc[nH]c34)c2=O)cc1 [Cpd 171],46,< 5.00,
COc1ccc(Cn2c(=O)nc(NCc3cnc(C)cc3C)n(Cc3cccc4cc[nH]c34)c2=O)cc1 [Cpd 172],88,6.29,
CSc1ccc(Cn2c(=O)nc(NCc3c(C)cc(C)nc3N)n(Cc3ccc(OC(F)F)cc3)c2=O)cc1 [Cpd 173],97,6.68,
Cc1cc(C)c(CNc2nc(=O)n(Cc3ccc4sccc4c3)c(=O)n2Cc2ccc(OC(F)F)cc2)c(N)n1 [Cpd 174],87,6.54,
Cc1cc(C)c(CNc2nc(=O)n(Cc3ccc4occc4c3)c(=O)n2Cc2ccc(OC(F)F)cc2)c(N)n1 [Cpd 175],96,7.24 and 7.03,99%
Cc1cc(C)c(CNc2nc(=O)n(Cc3ccc4c(c3)CCO4)c(=O)n2Cc2ccc(OC(F)F)cc2)c(N)n1 [Cpd 176],96,7.64 and 7.32 and 6.89,98%

SMILES,inhibition at 10 µM [%],pIC50,Ca^2+ Mobilization % Inh @ 10 μM
CSc1ccc(Cn2c(=O)nc(NCc3cnc(C)cc3C)n(Cc3ccc(OC(F)F)cc3)c2=O)cc1 [Cpd 177],79,6.19,
Cc1cc(C)c(CNc2nc(=O)n(Cc3ccc4occc4c3)c(=O)n2Cc2ccc(OC(F)F)cc2)cn1 [Cpd 178],46,5.06,
Cc1cc(C)c(CNc2nc(=O)n(Cc3ccc4c(c3)CCO4)c(=O)n2Cc2ccc(OC(F)F)cc2)cn1 [Cpd 179],61,5.34,
Cc1cc(C)c(CNc2nc(=O)n(Cc3ccccc3C#N)c(=O)n2Cc2ccc(OC(F)F)cc2)cn1 [Cpd 180],37,< 5.00,
Cc1cc(C)c(CNc2nc(=O)n(Cc3ccc(O)cc3)c(=O)n2Cc2ccc(OC(F)F)cc2)cn1 [Cpd 181],61,5.43,
CC(=O)Oc1ccc(Cn2c(=O)nc(NCc3cnc(C)cc3C)n(Cc3ccc(OC(F)F)cc3)c2=O)cc1 [Cpd 182],55,5.07,
COc1ccc(Cn2c(CCc3ccncc3)cc(=O)n(Cc3ccc(OC)cc3)c2=O)cc1 [Cpd 183],68,5.61,
"COc1ccc(Cn2c(C=Cc3ccncc3)cc(=O)n(Cc3ccc(OC)cc3)c2=O)cc1 [Cpd 184, 1,3-Bis-(4-methoxy-benzyl)-6-(2-pyridin-4-yl-vinyl)-1H-pyrimidine-2,4-dione]",65,5.57,
"Cc1cc(C)c(CNc2nc(=O)n(Cc3ccc4c(c3)CCO4)c(=O)n2Cc2ccc3c(c2)CCO3)c(N)n1 [Cpd 185, 6-[(2-Amino-4,6-dimethyl-pyridin-3-ylmethyl)-amino]-1,3-bis-(2,3-dihydro-benzofuran-5-ylmethyl)-1H-[1,3,5]triazine-2,4-dione]",92,7.82 and 7.10 and 6.93,94% and 98%
Cc1cc(C)c(CNc2nc(=O)n(Cc3ccc4occc4c3)c(=O)n2Cc2ccc3c(c2)CCO3)c(N)n1 [Cpd 186],99,7.13 and 7.01,100%
COc1ccc(Cn2c(CCc3ccccn3)cc(=O)n(Cc3ccc(OC)cc3)c2=O)cc1 [Cpd 187],41,< 5.00,
"COc1ccc(Cn2c(NCc3cccn4ccnc34)nc(=O)n(Cc3ccc(OC)cc3)c2=O)cc1 [Cpd 188, 6-[(Imidazo[1,2-a]pyridin-8-ylmethyl)-amino]-1,3-bis-(4-methoxy-benzyl)-1H-[1,3,5]triazine-2,4-dione]",66,6.24,
COc1ccc(Cn2c(CCc3cccnc3C(N)=O)cc(=O)n(Cc3ccc(OC)cc3)c2=O)cc1 [Cpd 189],38,< 5.00,
COc1ccc(Cn2c(OCc3cccnc3N)cc(=O)n(Cc3ccc(OC)cc3)c2=O)cc1 [Cpd 190],79,6.30,
Cc1cc(C)c(CNc2nc(=O)n(Cc3ccc(CO)cc3)c(=O)n2Cc2ccc(OC(F)F)cc2)cn1 [Cpd 191],50,5.08,
Cc1cc(C)c(CNc2nc(=O)n(Cc3ccc4c(c3)nnn4C)c(=O)n2Cc2ccc(OC(F)F)cc2)cn1 [Cpd 192],80,6.84 and 5.97,82%
COc1ccc(Cn2c(=O)nc(NCc3cnc(C)cc3C)n(Cc3ccc(OC(F)F)cc3)c2=O)cc1 [Cpd 193],,< 5.00,39%
Cc1cc(C)c(CNc2nc(=O)n(Cc3ccc(C(N)=O)cc3)c(=O)n2Cc2ccc(OC(F)F)cc2)cn1 [Cpd 194],49,5.21,
Cc1cc(C)c(CNc2nc(=O)n(Cc3ccc4snnc4c3)c(=O)n2Cc2ccc(OC(F)F)cc2)cn1 [Cpd 196],84,6.35,
COCCCCCn1c(=O)nc(NCc2cnc(C)cc2C)n(Cc2ccc(OC)cc2)c1=O [Cpd 197],54,5.55,
COCCCCCn1c(=O)nc(NCc2cnc(C)cc2C)n(Cc2ccc(OC(F)F)cc2)c1=O [Cpd 198],64,5.98,
"COc1ccc(Cn2c(CCc3cccnc3N)cc(=O)n(Cc3ccc(OC)cc3)c2=O)cc1 [Cpd 199, 6-[2-(2-Amino-pyridin-3-yl)-ethyl]-1,3-bis-(4-methoxy-benzyl)-1H-pyrimidine-2,4-dione]",92,6.77 and 6.16,95%
COc1ccc(Cn2c(=O)nc(NCc3cccnc3N)n(Cc3ccc(OC)cc3OC)c2=O)cc1 [Cpd 200],87,6.52,
COc1ccc(Cn2c(NCc3cnccc3C)nc(=O)n(Cc3ccc(OC)cc3)c2=O)cc1 [Cpd 201],95,6.49,
COc1ccc(Cn2c(OCc3c(C)cc(C)nc3N)cc(=O)n(Cc3ccc(OC)cc3)c2=O)cc1 [Cpd 202],70,6.08,
